In patent US20250179059A1 (The Regents of the University of California, priority 2021, published 2025):

Legend:
[1] = tested on: human SKM-1 acute myeloid leukemia cells; experiment: SKM-1 antiproliferation cell-based assay (ATPlite); conditions: Homo sapiens, SKM-1, 96 h, SKM-1 antiproliferation assay, 4 days, Table C2
Method in brief: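 Log-phase cells in RPMI 1640/15% FBS were seeded at 34722 cells/mL and exposed for 4 days to nine-concentration DMSO serial dilutions in triplicate. Viability was read as ATP luminescence (ATPlite 1step), and IC50 values came from variable-slope non-linear regression.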

[2] = target: T1, human BRD4 bromodomain II (Homo sapiens, UniProt O60885); experiment: Bromodomain binding assay (AlphaScreen), BRD4 BDII; conditions: AlphaScreen assay, Table C2; read-out: BRD4 BDII IC50
T1 construct: human BRD4 bromodomain II [based on Genbank NM_058243, residues 349-460]; host or cells: E. coli
Method in brief: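 Compounds (10-point, 3-fold series) were preincubated 30 min at room temperature with E. coli-expressed N-terminal His6-tagged BRD4 BDII (residues 349-460) or BDI (residues 44-170) in 50 mM HEPES pH 7.5, 100 mM NaCl, 0.05% CHAPS, 0.1% BSA, 1% DMSO. Displacement of biotinylated tetra-acetylated H4 1-21 peptide was read by AlphaScreen; IC50 from curve fitting.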

| GI50 [1] [nM] | IC50 [2] [nM] | Compound |
| --- | --- | --- |
| ≥ 3000 | 10 to 100 | CN1CCN(c2ccc(-c3cc(F)cc(-c4cnc(C(=O)O)c(N5CCNCC5)c4)c3O)cc2Cl)C1=O [Example 398, 5−(3′-chloro-5-fluoro-2-hydroxy-4′-(3-methyl-2-oxoimidazolidin-1-yl)-[1,1′-biphenyl]-3-yl)-3-(piperazin-1-yl)picolinic acid] |
| 30 to 300 | 1 to 10 | COCc1ncc(-c2cc(F)cc(-c3ccc(N4CCN(C)C4=O)c(Cl)c3)c2O)cc1N1CCNCC1 [Example 399, 1-(3-chloro-5′-fluoro-2′-hydroxy-3′-(6-(methoxymethyl)-5-(piperazin-1-yl)pyridin-3-yl)-[1,1′-biphenyl]-4-yl)-3-methylimidazolidin-2-one] |
| 300 to 3000 | 10 to 100 | CN1CCN(c2c(F)cc(-c3cc(F)cc(-c4ccnc(N5CCNCC5)c4)c3O)cc2Cl)C1=O [Example 400, 1-(3-chloro-5,5′-difluoro-2′-hydroxy-3′-(2-(piperazin-1-yl)pyridin-4-yl)-[1,1′-biphenyl]-4-yl)-3-methylimidazolidin-2-one] |
| 300 to 3000 | > 100 | CN1CCN(c2ccc(-c3cc(F)cc(-c4cc(C5=CCNCC5)cn(C)c4=O)c3O)cc2Cl)C1=O [Example 401, 5-(3′-chloro-5-fluoro-2-hydroxy-4′-(3-methyl-2-oxoimidazolidin-1-yl)-[1,1′-biphenyl]-3-yl)-1-methyl-1′,2′,3′,6′-tetrahydro-[3,4′-bipyridin]-6(1H)-one] |
| 300 to 3000 | > 100 | O=C1CCCN1c1c(Cl)cc(-c2cc(F)cc(-c3ccnc(N4CCNCC4)c3)c2O)cc1Cl [Example 402, 1-(3,5-dichloro-5′-fluoro-2′-hydroxy-3′-(2-(piperazin-1-yl)pyridin-4-yl)-[1,1′-biphenyl]-4-yl)pyrrolidin-2-one] |
| 0.3 to 30 | 1 to 10 | CC#Cc1ncc(-c2cc(F)cc(-c3ccc(N4CCN(C)C4=O)c(Cl)c3)c2O)cc1N1CCNCC1 [Example 403, 1-(3-chloro-5′-fluoro-2′-hydroxy-3′-(5-(piperazin-1-yl)-6-(prop-1-yn-1-yl)pyridin-3-yl)-[1,1′-biphenyl]-4-yl)-3-methylimidazolidin-2-one] |
| 300 to 3000 | > 100 | CN1CCN(c2c(Cl)cc(-c3cc(F)cc(-c4ccnc(N5CCNCC5)c4)c3O)cc2Cl)C1=O [Example 404, 1-(3,5-dichloro-5′-fluoro-2′-hydroxy-3′-(2-(piperazin-1-yl)pyridin-4-yl)-[1,1′-biphenyl]-4-yl)-3-methylimidazolidin-2-one] |
| 30 to 300 | 1 to 10 | CN1CCN(c2ccc(-c3cc(F)cc(-c4cnc(NCCO)c(N5CCNCC5)c4)c3O)cc2Cl)C1=O [Example 405, 1-(3-chloro-5′-fluoro-2′-hydroxy-3′-(6-((2-hydroxyethyl)amino)-5-(piperazin-1-yl)pyridin-3-yl)-[1,1′-biphenyl]-4-yl)-3-methylimidazolidin-2-one] |
| 30 to 300 | 10 to 100 | CN1CCN(c2ccc(-c3cc(F)cc(-c4ccnc(N5CCNCC5)c4)c3N)cc2Cl)C1=O [Example 406, 1-(2′-amino-3-chloro-5′-fluoro-3′-(2-(piperazin-1-yl)pyridin-4-yl)-[1,1′-biphenyl]-4-yl)-3-methylimidazolidin-2-one] |
| 0.3 to 30 | 1 to 10 | CN1CCN(c2ccc(-c3cc(F)cc(-c4cnc(Cl)c(N5CCNCC5)c4)c3O)cc2Cl)C1=O [Example 407, 1-(3-chloro-3′-(6-chloro-5-(piperazin-1-yl)pyridin-3-yl)-5′-fluoro-2′-hydroxy-[1,1′-biphenyl]-4-yl)-3-methylimidazolidin-2-one] |
| 300 to 3000 | 10 to 100 | Cn1ccn(-c2c(Cl)cc(-c3cc(F)cc(-c4ccnc(N5CCNCC5)c4)c3O)cc2Cl)c1=O [Example 408, 1-(3,5-dichloro-5′-fluoro-2′-hydroxy-3′-(2-(piperazin-1-yl)pyridin-4-yl)-[1,1′-biphenyl]-4-yl)-3-methyl-1H-imidazol-2(3H)-one] |
| 0.3 to 30 | 1 to 10 | [2H]C([2H])([2H])n1ccn(-c2ccc(-c3cc(F)cc(-c4ccnc(N5CCNCC5)c4)c3O)cc2Cl)c1=O [Example 409, 1-(3-chloro-5′-fluoro-2′-hydroxy-3′-(2-(piperazin-1-yl)pyridin-4-yl)-[1,1′-biphenyl]-4-yl)-3-(trideuteromethyl)-1H-imidazol-2(3H)-one] |
| 0.3 to 30 | 0.01 to 1 | Cn1ccn(-c2ccc(-c3cc(F)cc(-c4ccnc(N5CCC[C@H](N)C5)c4)c3O)cc2Cl)c1=O [Example 411, (S)-1-(3′-(2-(3-aminopiperidin-1-yl)pyridin-4-yl)-3-chloro-5′-fluoro-2′-hydroxy-[1,1′-biphenyl]-4-yl)-3-methyl-1H-imidazol-2(3H)-one] |
| 30 to 300 | 0.01 to 1 | [2H]C([2H])([2H])N1CCN(c2ccc(-c3cc(F)cc(-c4ccnc(N5CCNCC5)c4)c3O)cc2Cl)C1=O [Example 412, 1-(3-chloro-5′-fluoro-2′-hydroxy-3′-(2-(piperazin-1-yl)pyridin-4-yl)-[1,1′-biphenyl]-4-yl)-^3-deuteromethylimidazolidin-2-one] |
| 30 to 300 | 0.01 to 1 | Cn1ccn(-c2ccc(-c3cc(F)cc(-c4ccnc(N5CCC(N)CC5)c4)c3O)cc2Cl)c1=O [Example 414, 1-(3′-(2-(4-aminopiperidin-1-yl)pyridin-4-yl)-3-chloro-5′-fluoro-2′-hydroxy-[1,1′-biphenyl]-4-yl)-3-methyl-1H-imidazol-2(3H)-one] |
| 30 to 300 | 1 to 10 | CN1CCN(c2ccc(-c3cc(F)cc(-c4cnc(N5CCOCC5)c(N5CCNCC5)c4)c3O)cc2Cl)C1=O [Example 415, 1-(3-chloro-5′-fluoro-2′-hydroxy-3′-(6-morpholino-5-(piperazin-1-yl)pyridin-3-yl)-[1,1′-biphenyl]-4-yl)-3-methylimidazolidin-2-one] |
| ≥ 3000 | 10 to 100 | CN1CCN(c2ccc(-c3cc(F)cc(-c4ncc(N5CCOCC5)cc4N4CCNCC4)c3O)cc2Cl)C1=O [Example 416, 1-(3-chloro-5′-fluoro-2′-hydroxy-3′-(5-morpholino-3-(piperazin-1-yl)pyridin-2-yl)-[1,1′-biphenyl]-4-yl)-3-methylimidazolidin-2-on] |
| 300 to 3000 | 1 to 10 | O=C1CCN1c1ccc(-c2cc(F)cc(-c3ccnc(N4CCNCC4)c3)c2O)cc1Cl [Example 417, 1-(3-chloro-5′-fluoro-2′-hydroxy-3′-(2-(piperazin-1-yl)pyridin-4-yl)-[1,1′-biphenyl]-4-yl)azetidin-2-one] |
| 300 to 3000 | 10 to 100 | CC(C)Oc1cc(-c2cc(F)cc(-c3ccnc(N4CCNCC4)c3)c2O)cc(Cl)c1N1CCN(C)C1=O [Example 418, 1-(3-chloro-5′-fluoro-2′-hydroxy-5-isopropoxy-3′-(2-(piperazin-1-yl)pyridin-4-yl)-[1,1′-biphenyl]-4-yl)-3-methylimidazolidin-2-one] |
| 0.3 to 30 | 0.01 to 1 | Cc1cc(-c2ccnc(N3CCNCC3)c2)c(O)c(-c2ccc(-n3ccn(C)c3=O)c(Cl)c2)c1 [Example 420, 1-(3-chloro-2′-hydroxy-5′-methyl-3′-(2-(piperazin-1-yl)pyridin-4-yl)-[1,1′-biphenyl]-4-yl)-3-methyl-1H-imidazol-2(3H)-one] |
| 30 to 300 | 0.01 to 1 | CN1CCN(c2ccc(-c3cc(F)cc(-c4cnc(OC5CCC(O)CC5)c(N5CCNCC5)c4)c3O)cc2Cl)C1=O (stereo not shown) [Example 421, 1-(3-chloro-5′-fluoro-2′-hydroxy-3′-(6-((4-hydroxycyclohexyl)oxy)-5-(piperazin-1-yl)pyridin-3-yl)-[1,1′-biphenyl]-4-yl)-3-methylimidazolidin-2-one] |
| 0.3 to 30 | 0.01 to 1 | Cn1cc(-c2cc(F)cc(-c3ccc(-n4ccn(C)c4=O)c(Cl)c3)c2O)cc(N2CC[C@H](N)C2)c1=O [Example 422, (S)-3-(3-aminopyrrolidin-1-yl)-5-(3′-chloro-5-fluoro-2-hydroxy-4′-(3-methyl-2-oxo-2,3-dihydro-1H-imidazol-1-yl)-[1,1′-biphenyl]-3-yl)-1-methylpyridin-2(1H)-one] |
| 0.3 to 30 | 0.01 to 1 | Cn1ccn(-c2ccc(-c3cc(F)cc(-c4ccnc(N5CC[C@H](N)C5)c4)c3O)cc2Cl)c1=O [Example 423, (S)-1-(3′-(2-(3-aminopyrrolidin-1-yl)pyridin-4-yl)-3-chloro-5′-fluoro-2′-hydroxy-[1,1′-biphenyl]-4-yl)-3-methyl-1H-imidazol-2(3H)-one] |
| 30 to 300 | 0.01 to 1 | CN1CCN(c2ccc(-c3cc(F)cc(-c4cc(N5CCNCC5)c5[nH]ncc5c4)c3O)cc2Cl)C1=O [Example 424, 1-(3-chloro-5′-fluoro-2′-hydroxy-3′-(7-(piperazin-1-yl)-1H-indazol-5-yl)-[1,1′-biphenyl]-4-yl)-3-methylimidazolidin-2-one] |
| 30 to 300 | 0.01 to 1 | Cn1cc(-c2cc(F)cc(-c3ccc(-n4ccn(C)c4=O)c(Cl)c3)c2O)cc(N2CCC[C@H](N)C2)c1=O [Example 425, (S)-3-(3-aminopiperidin-1-yl)-5-(3′-chloro-5-fluoro-2-hydroxy-4′-(3-methyl-2-oxo-2,3-dihydro-1H-imidazol-1-yl)-[1,1′-biphenyl]-3-yl)-1-methylpyridin-2(1H)-one] |
| ≥ 3000 | > 100 | CN1CCN(c2c(Cl)cc(-c3cc(F)cc(-c4ccnc(N5CCNCC5)c4)c3O)cc2C#N)C1=O [Example 426, 5-chloro-5′-fluoro-2′-hydroxy-4-(3-methyl-2-oxoimidazolidin-1-yl)-3′-(2-(piperazin-1-yl)pyridin-4-yl)-[1,1′-biphenyl]-3-carbonitrile] |
